Experimental data as given in PubChem BioAssay AID1963976 (Molecular Pharmacology Branch, DTP, NCI, 2024).
Values joined by “and” are separate entries in the source; they are usually repeats but may differ in a detail not shown here. Identical values can stand only once.

System: 435261-313-R-J1-PDC tumor spheroid viability
Assay: Anticancer human tumor 435261-313-R-J1-PDC patient-derived colon adenocarcinoma cell line growth inhibition [PI3K]
Conditions: spheroids with HUVEC and MSC; for viability, T/C: stronger effect = lower value
From the text: Combinatorial screen of targeted agents with the PI3K inhibitors inavolisib, alpelisib, duvelisib, and copanlisib in multi-cell type tumor spheroids
A high-throughput screen of multi-cell type tumor spheroids was designed to identify active combinations of targeted small molecules and PI3K pathway inhibitors. Complex spheroids include a stromal component modeled by human endothelial cells (HUVEC) and fibroblasts modeled by human mesenchymal stem cells (MSCs). The concentration ranges selected for each drug and investigational agent were based upon clinically achievable concentrations if the clinical Cmax of the agent was known.
Compounds. The drugs and investigational agents: inavolisib (NSC800729), alpelisib (NSC765974), duvelisib (NSC772469), copanlisib (NSC816437), ipatasertib (NSC767898), afuresertib (NSC778305), talazoparib (NSC767125), sapanisertib (NSC764658), selumetinib (NSC741078), tovorafenib (DAY101, NSC766906), vemurafenib (NSC761431), ravoxertinib (NSC781343), sotorasib (NSC818433), MRTX1133 (NSC 836407), abemaciclib (NSC 768073), palbociclib (NSC758247), venetoclax (NSC 766270), SY5609 (NSC837396), enzalutamide (NSC755605), and darolutamide (NSC825331), were obtained from the National Cancer Institute (NCI) Developmental Therapeutics Program Chemical Repository. The FDA-approved anticancer drug set is available from the NCI Developmental Therapeutics Program. […] The stock solutions were prepared in dimethyl sulfoxide (DMSO, Sigma-Aldrich, St. Louis, MO, cat. D2650) at 800-fold the tested concentration and stored at -70 degrees C prior to their use. All drugs and investigational agents were tested over a range starting from a high concentration at or near the clinical Cmax and decreasing in half-log increments. If the clinical Cmax for an agent had not been determined, the highest concentration tested was 10 microM.
Cell Culture. All cells were maintained in an incubator at 37 degrees C and 5% CO2 with 95% humidity. The PDC lines were cultured according to standard operating procedures established by the NCI PDMR (https://pdmr.cancer.gov/sops/default.htm). All PDCs were thawed and cultured in Matrigel-coated flasks prepared with a working solution of 1X Ham's F-12 nutrient mix, without supplementation (Invitrogen, Waltham, MA, cat. 11765054), 100 U/mL penicillin-streptomycin (Invitrogen, cat. 15140122), and 2.5% Matrigel (Corning Inc., Corning, NY, cat. 354248) for the first three passages. The 354836-022-R-J1-PDC, 475296-252-R-J1-PDC, and 997726-040-R-J2-PDC lines were cultured in 6A media, which includes advanced DMEM/F-12 (Thermo Fisher Scientific, cat. 12634028), 10 mM HEPES (Thermo Fisher Scientific, cat. 15630080), 1X GlutaMAX supplement (Thermo Fisher Scientific, cat. 35050061), 0.1 mg/mL primocin (InvivoGen, San Diego, CA, cat. ant-pm-2), 10% defined fetal bovine serum, heat inactivated (HyClone Laboratories Inc., Logan, UT, cat. SH30070.03HI), 50% L-WRN conditioned media (ATCC, cat. CRL-3276), 1.25 mM N-Acetyl-L-cysteine (Sigma-Aldrich, cat. A9165), 10 mM nicotinamide (Sigma-Aldrich, cat. N0636), 1X B-27 supplement (Thermo Fisher Scientific, cat. 17504044), 1X N-2 supplement (Thermo Fisher Scientific, cat. 17502048), and 10 microM Y-27632 dihydrochloride (Tocris Bioscience, Bristol, United Kingdom, cat. 1254). The 624824-186-R-J2-PDC line was cultured in 6C/Colon 1B media, which includes all 6A media components plus 50 ng/mL human EGF recombinant protein (Thermo Fisher Scientific, cat. PHG0311). […]
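Note: spheroids exposed to compounds for 7 days.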

| IC50 (curve of compound) | SMILES | viability, T/C (compound 0.0316 µM) | viability, T/C (compound 0.1 µM) | viability, T/C (compound 0.316 µM) | viability, T/C (compound 1 µM) | viability, T/C (compound 3.16 µM) | viability, T/C (compound 10 µM) | also measured |
| --- | --- | --- | --- | --- | --- | --- | --- | --- |
| 5.36 µM and 5.46 µM and 5.56 µM | C#Cc1c(F)ccc2cc(O)cc(-c3ncc4c(N5CC6CCC(C5)N6)nc(OCC56CCCN5CC(F)C6)nc4c3F)c12 (stereo not given) | 89.8% and 97.7% and 83.1% | 91.7% and 82.7% and 95.5% | 124% and 84% and 113% | 95.2% and 62.6% and 64% | 61.5% and 78.3% and 73.5% | 36.6% and 30.7% and 31.1% |  |
| > 10 µM | C=CC(=O)N1CCN(c2nc(=O)n(-c3c(C)ccnc3C(C)C)c3nc(-c4c(O)cccc4F)c(F)cc23)C(C)C1 (stereo not given) | 92% [middle of 4 runs] |  | 109% [middle of 4 runs] |  | 137% and 124% (2×) and 123% | 109% [middle of 4 runs] |  |
| > 0.1 µM | CC(=O)c1c(C)c2cnc(Nc3ccc(N4CCNCC4)cn3)nc2n(C2CCCC2)c1=O | 99.9% and 90.4% and 103% | 68.8% and 77.6% and 68.9% |  |  |  |  | viability, T/C (compound 0.000316 µM): 69.4% and 92% and 91.1%; viability, T/C (compound 0.001 µM): 92.5% and 97.7% and 88.2%; viability, T/C (compound 0.00316 µM): 86.3% and 105% and 87%; viability, T/C (compound 0.01 µM): 105% and 93.1% and 75.4% |
| 3.56 µM and 0.965 µM and 5.92 µM | CC(C)NCC(C(=O)N1CCN(c2ncnc3c2C(C)CC3O)CC1)c1ccc(Cl)cc1 (stereo not given) | 76.4% and 94.8% and 95.1% | 90.5% and 77% and 73.2% | 95.1% and 85.8% and 97.9% | 57.7% and 48.9% and 79% | 58.6% and 52.4% and 76.3% | 20.2% and 36.6% and 29% |  |
| 0.038 µM and 0.0144 µM | CC(C)n1nc(-c2ccc3oc(N)nc3c2)c2c(N)ncnc21 | 60.8% and 46.7% | 18.7% and 12.7% |  |  |  |  | viability, T/C (compound 0.000316 µM): 75.7% and 66.3%; viability, T/C (compound 0.001 µM): 119% and 65.3%; viability, T/C (compound 0.00316 µM): 86.6% and 58.6%; viability, T/C (compound 0.01 µM): 67.3% and 48.3% |
| > 10 µM | CC(Cn1ccc(-c2ccc(C#N)c(Cl)c2)n1)NC(=O)c1cc(C(C)O)[nH]n1 (stereo not given) | 97.2% and 88.6% and 70.7% | 108% and 96.9% and 109% | 130% and 117% and 107% | 79.9% and 113% and 70.2% | 110% and 105% and 108% | 120% and 102% and 99.3% |  |
|  | CC(Nc1ccc2c(c1)OCCn1cc(N3C(=O)OCC3C(F)F)nc1-2)C(N)=O (stereo not given) |  | 31.2% [middle of 7 runs] | 23.1% [middle of 7 runs] | 20.4% [middle of 7 runs] |  |  |  |
|  | CC(Nc1ncnc2nc[nH]c12)c1cc2cccc(Cl)c2c(=O)n1-c1ccccc1 (stereo not given) |  |  |  | 77.1% [middle of 7 runs] | 70.9% [middle of 7 runs] |  |  |
|  | CC1(C)CCC(CN2CCN(c3ccc(C(=O)NS(=O)(=O)c4ccc(NCC5CCOCC5)c([N+](=O)[O-])c4)c(Oc4cnc5[nH]ccc5c4)c3)CC2)=C(c2ccc(Cl)cc2)C1 |  |  |  |  | 107% [middle of 4 runs] |  |  |
|  | CC1(C)CCC(Nc2ncc(C(F)(F)F)c(-c3c[nH]c4c(P(C)(C)=O)c(C#N)ccc34)n2)CN1 (stereo not given) | 68.8% [middle of 4 runs] | 59.7% [middle of 4 runs] |  | 54.3% [middle of 4 runs] | 51.3% [middle of 4 runs] | 1.48% [middle of 4 runs] |  |
| 5.4 µM and 5.68 µM | CCCS(=O)(=O)Nc1ccc(F)c(C(=O)c2c[nH]c3ncc(-c4ccc(Cl)cc4)cc23)c1F | 77% and 97.8% | 91% and 84.7% | 110% and 111% | 120% and 96.2% | 88.7% and 98.1% | 5.61% and 4.11% |  |
|  | CCN1CCN(Cc2ccc(Nc3ncc(F)c(-c4cc(F)c5nc(C)n(C(C)C)c5c4)n3)nc2)CC1 | 61.7% and 67.7% and 78.4% | 48.9% and 58.6% and 55.6% | 47.7% and 44.3% and 50.4% | 40.8% and 56.3% and 51.8% |  |  | viability, T/C (compound 0.00316 µM): 78.8% and 104% and 106%; viability, T/C (compound 0.01 µM): 94.5% and 76.5% and 82.8% |
| > 10 µM | CNC(=O)c1ccc(N2C(=S)N(c3ccc(C#N)c(C(F)(F)F)c3)C(=O)C2(C)C)cc1F |  |  |  |  | 106% [middle of 4 runs] |  |  |
|  | COc1c(OCCCN2CCOCC2)ccc2c3n(c(=NC(=O)c4cnc(N)nc4)nc12)CCN3 | 29% [middle of 6 runs] | 15.8% [middle of 6 runs] | 8.17% [middle of 6 runs] | 4.83% [middle of 6 runs] |  |  | IC50 (compound alone, run of 06/13/2023): 13.3 nM [middle of 6 runs] |
| > 10 µM | C[C@@H](NC(=O)c1ncnc(N)c1Cl)c1ncc(C(=O)Nc2cc(C(F)(F)F)c(Cl)cn2)s1 | 133% and 131% and 118% | 127% and 106% and 111% | 154% and 79.3% and 153% | 151% and 130% and 124% | 146% and 120% and 129% | 120% and 114% and 88.1% |  |
|  | Cc1nc(NC(=O)N2CCCC2C(N)=O)sc1-c1ccnc(C(C)(C)C(F)(F)F)c1 (stereo not given) |  | 82.1% [middle of 6 runs] | 64.4% [middle of 6 runs] | 27.3% [middle of 6 runs] | 17.2% [middle of 6 runs] | 7% [middle of 6 runs] | IC50 (compound alone, run of 06/12/2023): 447 nM [middle of 6 runs] |
| < 0.00949 µM | Cn1cnc2c(F)c(Nc3ccc(Br)cc3Cl)c(C(=O)NOCCO)cc21 |  |  |  |  |  |  | viability, T/C (compound 0.00949 µM): 33.8% and 34.9% and 45.8%; viability, T/C (compound 0.03 µM): 32.3% and 27.6% and 36%; viability, T/C (compound 0.0949 µM): 12.5% and 23.4% and 29.8%; viability, T/C (compound 0.3 µM): 30.7% and 22.9% and 24.5%; viability, T/C (compound 0.949 µM): 16.1% and 18.4% and 20.9%; viability, T/C (compound 3 µM): 9.65% and 10.9% and 16.8% |
| 0.641 µM and 0.571 µM and 0.978 µM | Cn1ncc(Cl)c1-c1cc(C(=O)NC(CN)Cc2cccc(F)c2)sc1Cl (stereo not given) | 104% and 107% and 76.9% | 82.6% and 66.1% and 92.1% | 70.9% and 90.8% and 66.1% | 26.1% and 32.2% and 54.4% | 20.6% and 20.1% and 23.6% | 8.15% and 8% and 9.52% |  |
|  | Cn1nccc1Nc1nccc(-c2ccn(C(CO)c3ccc(Cl)c(F)c3)c(=O)c2)n1 (stereo not given) |  |  | 68.2% [middle of 4 runs] | 45.7% [middle of 4 runs] | 30.4% [middle of 4 runs] | 18.4% [middle of 4 runs] |  |
| > 0.1 µM | Cn1ncnc1[C@H]1c2n[nH]c(=O)c3cc(F)cc(c23)N[C@@H]1c1ccc(F)cc1 |  | 62.6% [middle of 4 runs] |  |  |  |  | viability, T/C (compound 0.00316 µM): 93.3% and 79.8% (2×) and 89.1% |
